{"source": "patent US20050176811A1", "about": "“Vitamin combination for providing protection during the chemotherapy and/or radio-therapy of malignant tumours” (priority 2002, published 2005)", "key": {"[1]": {"tested_on": "sarcoma 45", "settings": "rat, in vivo"}, "[2]": {"tested_on": "white raceless male and female rats", "test": "Whole body gamma irradiation of rats at 11.4 Gy, comparison with mexamine", "type": "in vivo", "settings": "radiation dose 11.4 Gy, agent 24 h before irradiation", "method": "In order to compare the radiation protection according to the invention with the effect of conventional radiation protective agents white raceless male and female rats weighing from 150 to 180 g (age: 3 months) was subjected to whole body gamma irradiation at a dose of 11.4 Gy, the animals being protected according to the invention by administering the vitamin combination at the above-mentioned dose 24 hours before the irradiation (group I). […] A third group of rats was irradiation without administering a radiation protective agent (group III)."}, "[3]": {"tested_on": "stomach cancer at stage IV", "parameters": "concentration or dose not given beside the values", "settings": "only 5-Fu, control group from older literature; cited from earlier work"}}}
{"compound": "tocopherol [vitamin E]", "values": [{"measurement": "distribution of vitamin E (tocopherol contents in organs)", "setting": "[1]", "value": "accumulation of this vitamin in the tumour"}]}
{"compound": "COc1ccc2[nH]cc(CCN)c2c1", "note": "[mexamine]", "values": [{"measurement": "average life-span", "setting": "[2]", "value": "8.2 ± 4", "unit": "days"}, {"measurement": "days at which 50% of animals are dead", "setting": "[2]", "value": "50/8 days"}, {"measurement": "days at which 100% of animals are dead", "setting": "[2]", "value": "100/13 days"}]}
{"compound": "O=c1[nH]cc(F)c(=O)[nH]1", "note": "[5-Fu, 5-Fluorouracil]", "values": [{"measurement": "survival rate (%) after 3 months", "setting": "[3]", "value": 86.7, "unit": "%"}, {"measurement": "survival rate (%) after 6 months", "setting": "[3]", "value": 66.7, "unit": "%"}, {"measurement": "survival rate (%) after 9 months", "setting": "[3]", "value": 40.0, "unit": "%"}, {"measurement": "survival rate (%) after 12 months", "setting": "[3]", "value": 20.0, "unit": "%"}, {"measurement": "survival rate (%) after 18 months", "setting": "[3]", "value": 13.7, "unit": "%"}, {"measurement": "survival rate (%) after 22 months", "setting": "[3]", "value": 0, "unit": "%"}]}
